# Source: PubChem BioAssay AID504539 (Broad Institute, 2011)
# The source made the active and inactive calls. No rule for the calls is given here.
# Test system: not listed separately
# Assay: prion protein 5' UTR mRNA inhibitors – cell-based, plate reader, cherry-picked samples, dose response (AID 504539)
# Details: Cell-based prion protein 5' UTR reporter, plate reader; at 5 µM (top of the series)
row,SMILES,"activity change, negative = inhibition"
1,Cn1nnc2cc(C(=O)NC3CCCCC3)ccc21,46.3% (inactive)
2,COc1ccc(Nc2nc(-c3c(C)nc4ncccn34)cs2)cc1,-31.6% (inactive)
3,CCc1ccc(/C=C2\SC(=S)N(CCCC(=O)Nc3ccccn3)C2=O)cc1,-23.5% (inactive)
4,Cc1ccc(S(=O)(=O)Nc2nc3ccccc3s2)cc1[N+](=O)[O-],25.2% (inactive)
5,O=C(NN1C(=O)C2C3C=CC(C4CC34)C2C1=O)c1ccc(Br)cc1 (stereo unspecified),108% (inactive)
6,CCOc1ccc(C2=Nn3c(nnc3-c3ccccc3OC)SC2)cc1,-38.1% (inactive)
7,N#Cc1cn(C2OC(CO)C(O)C2O)c2ncnc(N)c12 (stereo unspecified),-30.1% (inactive)
8,O=C(NNC(=O)c1cccs1)c1ccco1,6.33% (inactive)

# Test system: Cell-based prion protein 5' UTR reporter, plate reader
# Assay: as above
# Details: not given
row,SMILES,AC50
1,COC(=O)Cc1[nH]n(-c2nc3ccccc3s2)c(=O)c1C(C)=Nc1ccc(OC)cc1,108 nM
2,CCOc1ccc(OCc2cccc(C(=O)N3CCOCC3)c2)cc1,573 nM
3,c1ccc(-c2noc(-c3ccc4c(c3)OCO4)n2)nc1,140 nM
4,Cc1ccc(C(=O)/C=C/Nc2ccccn2)cc1,233 nM
5,O=c1c(Cl)c(N2CCCCC2)cnn1-c1nc2ccccc2[nH]1,501 nM
6,CC(C)Oc1ccc(C(=O)Nc2nc3ccccc3[nH]2)cc1,304 nM
7,COc1ccccc1NC(=O)c1oc2ccccc2c1NC(=O)c1cc(OC)c(OC)c(OC)c1,537 nM
8,CC(=O)O[C@H]1C(=O)[C@@]2(C)[C@H]([C@H](OC(=O)c3ccccc3)[C@]3(O)C[C@H](OC(=O)[C@H](O)[C@@H](NC(=O)c4ccccc4)c4ccccc4)C(C)=C1C3(C)C)[C@]1(OC(C)=O)CO[C@@H]1C[C@@H]2O,227 nM
9,COc1cc2c(c(OC)c1OC)-c1ccc(SC)c(=O)cc1C(NC(=O)c1ccccc1)CC2 (stereo unspecified),< 38 nM
10,Cc1ccccc1OCC(=O)Nc1cccc(C(=O)O)c1,422 nM
11,Cn1cc(/C=N/n2cnc3scc(-c4ccc(Cl)cc4)c3c2=O)c2ccccc21,499 nM
12,COc1ccc(C2=Nn3c(nnc3-c3ccccc3OC)SC2)cc1OC,395 nM
13,Cc1ccc(C(=O)O/N=C(\N)c2ccccn2)cc1,213 nM
14,Cc1ccc2nc3sc(C(=O)N4CCOCC4)c(N)c3cc2c1,275 nM
15,COc1ccc(-c2cc3nc(C)n(N)c(=O)c3s2)cc1,113 nM
16,COc1ccc(-c2nc(-c3ccccn3)no2)cc1,209 nM
17,Cc1cccc2cc(C#N)c(SCC(=O)N3CC(=O)Nc4ccccc43)nc12,960 nM
18,O=C(/C=C\Nc1ccc2c(c1)OCO2)c1ccccn1,173 nM
19,Cc1nn(-c2ccccc2)c(C)c1/C=N/NC(=O)c1cc(-c2cccs2)[nH]n1,1070 nM
20,CC1CCCC=CC2CC(OC(=O)CN(C)C)CC2C(O)C=CC(=O)O1 (stereo unspecified),126 nM
21,COc1cccc(N2CCN(C(=O)c3ccc(CS(=O)c4ccccc4C)o3)CC2)c1 (stereo unspecified),1380 nM
22,COC(=O)C12OCC34C(CC5C(C)=C(O)C(=O)CC5(C)C3C(O)C1O)OC(=O)C(OC(=O)/C=C(\C)C(C)C)C24 (stereo unspecified),< 38 nM

row,SMILES,AC50
1,CC(=Nc1ccccc1)C1=C(O)C(Cc2ccc(O)cc2)NC1=O (stereo unspecified),379 nM
2,CN(CCO)c1ccc(/C=N/Nc2nncc3ccccc23)cc1,412 nM
3,Cc1c(/C=N\NC(=O)C2COc3ccccc3O2)c2ccccc2n1C (stereo unspecified),3040 nM
4,Cc1cc(C=C2C(=O)c3ccccc3C2=O)c(C)n1-c1ccccc1,809 nM
5,NC(=S)c1cn(C2OC(CO)C(O)C2O)c2ncnc(N)c12 (stereo unspecified),1810 nM
6,COc1ccc(C(=O)O/N=C(\N)c2ccccn2)cc1,99 nM
7,CCCCCCN1C=CC(=C2C(=O)c3ccccc3C2=O)C=C1,369 nM
8,CC1=CC2OC3CC4OC(=O)C=CC=CC(C(C)O)OCC(O)C5(C)OC5C(=O)OCC2(CC1O)C4(C)C31CO1 (stereo unspecified),95 nM
9,CCOc1ccc2c(c1)C(C)=CC(C)(C)N2S(=O)(=O)c1ccc(C)cc1,1590 nM
10,COC(=O)c1ccccc1NC(=O)Cn1c(-c2nonc2N)nc2ccccc21,605 nM
11,CCN(CC)c1ccc(C(=C2C=CC(=[N+](CC)CC)C=C2)c2ccccc2)cc1,892 nM
12,O=C(N/N=C/c1c[nH]c2ccccc12)c1[nH]c2ccc(Br)cc2c1-c1ccccc1,774 nM
13,COC1C(C)OC(OC2CC(C)(O)Cc3cc4c(c(O)c32)C(=O)c2c(O)cc3c(c2C4=O)OC2OC3(C)C(O)C(N(C)C)C2O)C(OC)C1(C)OC (stereo unspecified),118 nM
14,N#CC1=C(N)OC2=C(CCc3ccccc32)C1c1ccccc1 (stereo unspecified),945 nM
15,O=c1c2ccccc2oc2cc(C#CC3(O)CCCCC3)ccc12,1840 nM
16,CN(C)CCNc1ccc2ncn3c4ccc(O)cc4c(=O)c1c23,2470 nM
17,Fc1ccc(-c2nnc(NC3=NCCCCC3)o2)cc1,372 nM
18,c1ccc2nc(-c3ccc(N4CCOCC4)cc3)ccc2c1,385 nM
19,c1cc2c(cc1C1=NNC(=NC3CC3)SC1)OCCO2,189 nM
20,O=C(NCCc1ccccc1F)c1ccc2c(c1)OCCO2,140 nM
21,Cc1ccsc1/C=N/Nc1cccc(C(=O)O)c1,355 nM
